Tests used:
GCN2 kinase = GCN2 kinase (Homo sapiens, UniProt Q9P2K8); assay: GCN2 enzyme inhibition assay (Transcreener ADP2 fluorescence polarization); assay type: biochemical; conditions: compounds of Formula II; 280 μM ATP, 4 nM GCN2 kinase
In short: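 ADP formation read by Transcreener FP after a 1 h, 25 °C kinase reaction containing 280 μM ATP, 200 μM (RS)7 substrate and 4 nM GCN2, pH 7.5 Tris buffer. Compounds (0–8 μM final) were added 10 min before ATP. Percent inhibition gave IC50 and apparent Ki via tight-binding fit.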

[1] = biological target: intracellular GCN2 (phosphorylation of the GCN2 substrate eIF2α) (Homo sapiens, UniProt Q9P2K8); assay: GCN2 cellular inhibition assay (AlphaScreen SureFire P-eIF2α Ser51, borrelidin-treated U2OS cells); assay type: cell-based; conditions: compounds of Formula II; biomarker assay, phosphorylated eIF2α Ser51 in borrelidin-treated U2OS cells
In short: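 Phospho-eIF2α (Ser51) in lysates was quantified by AlphaScreen SureFire after a 1 h, 37 °C treatment of U2OS cells with 10 μM borrelidin and compound at 4-fold dilutions starting from 40 μM final. Inhibition expressed in percent against wells stimulated by borrelidin alone.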

Sequence of GCN2 kinase (Q9P2K8 whole entry): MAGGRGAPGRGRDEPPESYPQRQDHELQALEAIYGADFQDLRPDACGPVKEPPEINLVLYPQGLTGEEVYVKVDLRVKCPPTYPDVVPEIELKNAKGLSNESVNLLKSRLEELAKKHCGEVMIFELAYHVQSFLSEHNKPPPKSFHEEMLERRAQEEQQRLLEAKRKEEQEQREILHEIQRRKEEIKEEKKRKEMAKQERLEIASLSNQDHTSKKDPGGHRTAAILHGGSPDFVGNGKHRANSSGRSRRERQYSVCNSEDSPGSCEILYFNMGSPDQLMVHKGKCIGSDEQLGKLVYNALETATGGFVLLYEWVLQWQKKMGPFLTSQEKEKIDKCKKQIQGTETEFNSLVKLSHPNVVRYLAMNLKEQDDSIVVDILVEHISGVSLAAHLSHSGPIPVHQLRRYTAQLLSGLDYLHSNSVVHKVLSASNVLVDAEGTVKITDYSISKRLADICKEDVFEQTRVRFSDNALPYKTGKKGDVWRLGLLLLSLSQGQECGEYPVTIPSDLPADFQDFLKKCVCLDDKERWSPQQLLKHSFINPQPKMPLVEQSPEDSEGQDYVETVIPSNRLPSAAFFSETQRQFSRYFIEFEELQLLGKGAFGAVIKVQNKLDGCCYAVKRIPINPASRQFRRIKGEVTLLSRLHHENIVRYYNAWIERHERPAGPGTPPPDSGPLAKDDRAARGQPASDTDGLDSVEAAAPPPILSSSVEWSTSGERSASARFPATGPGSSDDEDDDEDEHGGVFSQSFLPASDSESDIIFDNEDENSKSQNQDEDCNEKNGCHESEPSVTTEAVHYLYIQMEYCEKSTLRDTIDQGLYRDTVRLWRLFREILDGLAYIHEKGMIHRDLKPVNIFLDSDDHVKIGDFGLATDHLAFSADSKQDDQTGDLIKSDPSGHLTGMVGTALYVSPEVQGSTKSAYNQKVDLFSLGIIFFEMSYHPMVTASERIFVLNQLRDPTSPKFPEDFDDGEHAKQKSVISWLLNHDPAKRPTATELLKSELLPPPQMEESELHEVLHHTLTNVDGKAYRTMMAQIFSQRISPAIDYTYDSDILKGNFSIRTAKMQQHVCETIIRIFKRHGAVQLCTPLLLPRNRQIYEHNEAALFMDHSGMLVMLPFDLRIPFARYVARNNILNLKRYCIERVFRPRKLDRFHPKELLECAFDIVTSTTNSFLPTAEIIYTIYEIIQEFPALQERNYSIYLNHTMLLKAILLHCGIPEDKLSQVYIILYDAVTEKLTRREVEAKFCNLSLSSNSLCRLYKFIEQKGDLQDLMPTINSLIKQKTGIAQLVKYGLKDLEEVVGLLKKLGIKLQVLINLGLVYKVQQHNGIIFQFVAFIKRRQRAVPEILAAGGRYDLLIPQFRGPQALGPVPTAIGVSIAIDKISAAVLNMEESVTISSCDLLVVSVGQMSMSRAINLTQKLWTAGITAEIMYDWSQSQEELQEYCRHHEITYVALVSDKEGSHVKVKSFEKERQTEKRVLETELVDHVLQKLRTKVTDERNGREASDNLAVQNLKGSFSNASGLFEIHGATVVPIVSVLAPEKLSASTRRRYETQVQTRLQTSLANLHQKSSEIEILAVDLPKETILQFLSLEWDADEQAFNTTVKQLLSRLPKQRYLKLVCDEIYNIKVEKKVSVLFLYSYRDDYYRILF
Sequence of intracellular GCN2 (phosphorylation of the GCN2 substrate eIF2α) (Q9P2K8 whole entry): as above

Row | SMILES | Ki (GCN2 kinase) [nM] | IC50 [1] [µM] | IC50 (GCN2 kinase) [nM]
1 | CC1CCC(N=S(C)(C)=O)CN1c1cc(-c2cnc3ccc(C(F)F)nn23)ncn1 (stereo not drawn) [II-696, [1-[6-[6-(Difluoromethyl)imidazo[1,2-b]pyridazin-3-yl]pyrimidin-4-yl]-6-methyl-3-piperidyl]imino-dimethyl-λ^6-sulfanone] | 10 to 1000 | > 5 | 
2 | N#Cc1ccc2ncc(-c3cc(N4CCN5C(=O)CCCC5C4)ncn3)n2n1 (stereo not drawn) [II-699, 3-(6-(6-Oxooctahydro-2H-pyrido[1,2-a]pyrazin-2-yl)pyrimidin-4-yl)imidazo[1,2-b]pyridazine-6-carbonitrile] | 10 to 1000 | > 5 | 
3 | CS(C)(=O)=NC1CCCN(c2cc(-c3cnc4ccc(C(F)F)nn34)ncn2)C1C(F)F (stereo not drawn) [II-701, [2-(Difluoromethyl)-1-[6-[6-(difluoromethyl)imidazo[1,2-b]pyridazin-3-yl]pyrimidin-4-yl]-3-piperidyl]imino-dimethyl-λ^6-sulfanone] | 10 to 1000 | > 5 | 
4 | CC1CN(c2cc(-c3cnc4ccc(C(F)(F)F)nn34)ncn2)C(C)C(c2cn[nH]c2)N1 (stereo not drawn) [II-704, 3-(6-(2,5-Dimethyl-3-(1H-pyrazol-4-yl)piperazin-1-yl)pyrimidin-4-yl)-6-(trifluoromethyl)imidazo[1,2-b]pyridazine] | 10 to 1000 | > 5 | 
5 | CC1NCCN(c2cc(-c3cnc4ccc(C(F)(F)F)nn34)ncn2)C1c1cn[nH]c1 (stereo not drawn) [II-707, 3-(6-(3-Methyl-2-(1H-pyrazol-4-yl)piperazin-1-yl)pyrimidin-4-yl)-6-(trifluoromethyl)imidazo[1,2-b]pyridazine] | 10 to 1000 | > 5 | 
6 | CC1CC(N=S(C)(C)=O)CN(c2cc(-c3cnc4ccc(C(N)=O)nn34)ncn2)C1 (stereo not drawn) [II-726, 3-(6-(3-((Dimethyl(oxo)-λ^6-sulfanylidene)amino)-5-methylpiperidin-1-yl)pyrimidin-4-yl)imidazo[1,2-b]pyridazine-6-carboxamide] | 10 to 1000 | > 5 | 
7 | NC(=O)c1ccc2ncc(-c3cc(N4CCN5C(=O)CCCC5C4)ncn3)n2n1 (stereo not drawn) [II-727, 3-[6-(6-Oxo-3,4,7,8,9,9a-hexahydro-1H-pyrido[1,2-a]pyrazin-2-yl)pyrimidin-4-yl]imidazo[1,2-b]pyridazine-6-carboxamide] | 10 to 1000 | > 5 | 
8 | CC1CN(c2cc(-c3cnc4ccc(C(N)=O)nn34)ncn2)C(C)C(c2cn[nH]c2)N1 (stereo not drawn) [II-728, 3-[6-[2,5-Dimethyl-3-(1H-pyrazol-4-yl)piperazin-1-yl]pyrimidin-4-yl]imidazo[1,2-b]pyridazine-6-carboxamide] | 10 to 1000 | > 5 | 
9 | CS(=O)(=O)NCC1CCCN(c2cc(-c3cnc4ccc(C(F)F)nn34)c(F)cn2)C1 (stereo not drawn) [II-729, N-((1-(4-(6-(Difluoromethyl)imidazo[1,2-b]pyridazin-3-yl)-5-fluoropyridin-2-yl)piperidin-3-yl)methyl)methanesulfonamide] | < 10 | 0.5 to 5 | 
10 | CS(=O)(=O)NCC1CCCN(c2cc(-c3cnc4ccc(C(F)F)nn34)c(Cl)cn2)C1 (stereo not drawn) [II-730, N-((1-(5-Chloro-4-(6-(difluoromethyl)imidazo[1,2-b]pyridazin-3-yl)pyridin-2-yl)piperidin-3-yl)methyl)methanesulfonamide] | 10 to 1000 | 0.5 to 5 | 
11 | CC(=O)N1CCN(c2cccc(-c3cnc4ccc(C(F)F)nn34)n2)CC1 [II-731, 1-(4-(6-(6-(difluoromethyl)imidazo[1,2-b]pyridazin-3-yl)pyridin-2-yl)piperazin-1-yl)ethan-1-one] | > 1000 | > 5 | 
12 | CS(=O)(=O)NCC1CN(c2cc(-c3cnc4cccnn34)ccn2)CCO1 (stereo not drawn) [II-732, N-((4-(4-(imidazo[1,2-b]pyridazin-3-yl)pyridin-2-yl)morpholin-2-yl)methyl)methanesulfonamide] | > 1000 | > 5 | 
13 | Cc1cnc(N2CCCC(CNS(C)(=O)=O)C2)cc1-c1cnc2ccc(C(F)F)nn12 (stereo not drawn) [II-733, N-((1-(4-(6-(difluoromethyl)imidazo[1,2-b]pyridazin-3-yl)-5-methylpyridin-2-yl)piperidin-3-yl)methyl)methanesulfonamide] | > 1000 | > 5 | 
14 | CC(=O)NC1CCN(c2cc(-c3cnc4ccc(-c5cccnc5)nn34)ccn2)CC1 [II-735, N-(1-(4-(6-(pyridin-3-yl)imidazo[1,2-b]pyridazin-3-yl)pyridin-2-yl)piperidin-4-yl)acetamide] | > 1000 | > 5 | 
15 | CC(=O)N1CCN(c2cc(-c3cnc4ccc(N5CCC(N)C5)nn34)ccn2)CC1 (stereo not drawn) [II-736, 1-(4-(4-(6-(3-aminopyrrolidin-1-yl)imidazo[1,2-b]pyridazin-3-yl)pyridin-2-yl)piperazin-1-yl)ethan-1-one] | > 1000 | > 5 | 
16 | CC(=O)N1CCN(c2cc(-c3cnc4ccc(-c5cccnc5)nn34)ccn2)CC1 [II-737, 1-(4-(4-(6-(pyridin-3-yl)imidazo[1,2-b]pyridazin-3-yl)pyridin-2-yl)piperazin-1-yl)ethan-1-one] | > 1000 | > 5 | 
17 | CC(=O)N1CCN(c2cc(-c3cnc4ccc(N5CCOCC5)nn34)ccn2)CC1 [II-738, 1-(4-(4-(6-morpholinoimidazo[1,2-b]pyridazin-3-yl)pyridin-2-yl)piperazin-1-yl)ethan-1-one] | > 1000 | > 5 | 
18 | C[C@@H]1[C@H](CNS(C)(=O)=O)N(C2CC2)CCN1c1cc(-c2cnc3ccc(C(F)F)nn23)ncn1 [II-753, N-(((2S,3R)-1-cyclopropyl-4-(6-(6-(difluoromethyl)imidazo[1,2-b]pyridazin-3-yl)pyrimidin-4-yl)-3-methylpiperazin-2-yl)methyl)methanesulfonamide] |  | 0.5 to 5 | 10 to 1000

Next, values leading:

Row | Ki (GCN2 kinase) [nM] | IC50 [1] [µM] | IC50 (GCN2 kinase) [nM] | SMILES
19 | < 10 | 0.5 to 5 |  | CS(C)(=O)=NC1CC(C(F)(F)F)CN(c2cc(-c3cnc4ccc(C(F)F)nn34)ncn2)C1 (stereo not drawn) [II-695, ((1-(6-(6-(Difluoromethyl)imidazo[1,2-b]pyridazin-3-yl)pyrimidin-4-yl)-5-(trifluoromethyl)piperidin-3-yl)imino)dimethyl-λ^6-sulfanone]
20 | < 10 | 0.5 to 5 |  | CC1CN(c2cc(-c3cnc4ccc(C(F)(F)F)nn34)ncn2)C(C)C(c2cn[nH]c2)N1 (stereo not drawn) [II-698]
21 | < 10 | < 0.5 |  | CS(C)(=O)=NC1CCCN(c2cc(-c3cnc4ccc(C(F)F)nn34)ncn2)C1C(F)F (stereo not drawn) [II-700, [2-(Difluoromethyl)-1-[6-[6-(difluoromethyl)imidazo[1,2-b]pyridazin-3-yl]pyrimidin-4-yl]-3-piperidyl]imino-dimethyl-λ^6-sulfanone]
22 | < 10 | < 0.5 |  | CC1CN(c2cc(-c3cnc4ccc(C(F)(F)F)nn34)ncn2)C(C)C(c2cn[nH]c2)N1 (stereo not drawn) [II-705, 3-(6-(2,5-Dimethyl-3-(1H-pyrazol-4-yl)piperazin-1-yl)pyrimidin-4-yl)-6-(trifluoromethyl)imidazo[1,2-b]pyridazine]
23 | 10 to 1000 | 0.5 to 5 |  | CC1C(c2cn[nH]c2)NCCN1c1cc(-c2cnc3ccc(C(F)(F)F)nn23)ncn1 (stereo not drawn) [II-706, 3-(6-(2-Methyl-3-(1H-pyrazol-4-yl)piperazin-1-yl)pyrimidin-4-yl)-6-(trifluoromethyl)imidazo[1,2-b]pyridazine]
24 | 10 to 1000 | 0.5 to 5 |  | FC(F)c1ccc2ncc(-c3cc(-c4cnn(C5CCOCC5)c4)ncn3)n2n1 [II-709, 6-(Difluoromethyl)-3-[6-(1-tetrahydropyran-4-ylpyrazol-4-yl)pyrimidin-4-yl]imidazo[1,2-b]pyridazine]
25 | 10 to 1000 | 0.5 to 5 |  | CC1CC(P(C)(C)=O)CN(c2cc(-c3cnc4ccc(C(F)F)nn34)ncn2)C1 (stereo not drawn) [II-710, 6-(Difluoromethyl)-3-[6-(3-dimethylphosphoryl-5-methyl-1-piperidyl)pyrimidin-4-yl]imidazo[1,2-b]pyridazine]
26 | 10 to 1000 | 0.5 to 5 |  | CC1CC(P(C)(C)=O)CN(c2cc(-c3cnc4ccc(C(F)F)nn34)ncn2)C1 (stereo not drawn) [II-711, 6-(Difluoromethyl)-3-[6-(3-dimethylphosphoryl-5-methyl-1-piperidyl)pyrimidin-4-yl]imidazo[1,2-b]pyridazine]
27 | 10 to 1000 | 0.5 to 5 |  | FC(F)(F)c1ccc2ncc(-c3cc(N4CCCC(c5c[nH]cn5)C4)ncn3)n2n1 (stereo not drawn) [II-715]
28 | < 10 | < 0.5 |  | CC1CC(N=S(C)(C)=O)CN(c2cc(-c3cnc4ccc(C(F)F)nn34)ccn2)C1 (stereo not drawn) [II-716, ((1-(4-(6-(Difluoromethyl)imidazo[1,2-b]pyridazin-3-yl)pyridin-2-yl)-5-methylpiperidin-3-yl)imino)dimethyl-λ^6-sulfanone]
29 | 10 to 1000 | 0.5 to 5 |  | CC1CC(C(=O)O)C(C)N(c2cc(-c3cnc4ccc(C(F)(F)F)nn34)ncn2)C1 (stereo not drawn) [II-721, 2,5-Dimethyl-1-[6-[6-(trifluoromethyl)imidazo[1,2-b]pyridazin-3-yl]pyrimidin-4-yl]piperidine-3-carboxylic acid]
30 | 10 to 1000 | < 0.5 |  | Cc1noc([C@@H]2CN(c3cc(-c4cnc5ccc(C(F)(F)F)nn45)ccn3)C[C@H](C)O2)n1 [II-739]
31 | < 10 | < 0.5 |  | FC(F)(F)c1ccc2ncc(-c3ccnc(N4CCCC(c5c[nH]cn5)C4)c3)n2n1 (stereo not drawn) [II-740]
32 | < 10 | < 0.5 |  | FC(F)(F)c1ccc2ncc(-c3ccnc(N4CCCC(c5c[nH]cn5)C4)c3)n2n1 (stereo not drawn) [II-741]
33 |  | < 0.5 | 10 to 1000 | CC1CC(N=S(C)(C)=O)CN(c2cc(-c3cnc4ccc(C(F)(F)F)nn34)ncn2)C1 (stereo not drawn) [II-757, dimethyl((5-methyl-1-(6-(6-(trifluoromethyl)imidazo[1,2-b]pyridazin-3-yl)pyrimidin-4-yl)piperidin-3-yl)imino)-16-sulfanone]
